The values that follow come from publication PMC10806767 (JACS Au, 2023).

For experiment [1], the system named is breast cancer cells. The experiment can be described thus: Wound healing assay. The class given is cell-based. To be noted: 36 h, compared with the control group.
Experiment [2] deals with 4T1-luc mouse mammary tumor. The experiment can be described thus: In vivo antitumor efficacy and biosafety study, 4T1-luc tumor-bearing mice. The note with it: 8 mg/kg, peritumoral injection every other day, 19 days.
Experiment [3] addresses T1, recombinant protein His-SND1 (16-339) (UniProt Q7KZF4 16-339).
T1 sequence (looked up): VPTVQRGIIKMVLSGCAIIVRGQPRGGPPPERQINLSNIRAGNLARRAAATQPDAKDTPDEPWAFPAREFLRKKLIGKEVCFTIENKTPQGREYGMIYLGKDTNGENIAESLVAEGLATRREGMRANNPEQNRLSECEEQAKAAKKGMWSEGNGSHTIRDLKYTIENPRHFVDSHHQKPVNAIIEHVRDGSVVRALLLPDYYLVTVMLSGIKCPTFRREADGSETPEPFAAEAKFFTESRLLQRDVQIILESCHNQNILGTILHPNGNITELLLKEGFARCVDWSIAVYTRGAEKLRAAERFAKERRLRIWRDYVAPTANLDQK
The experiment can be described thus: fluorescence polarisation. In general terms: In fluorescence polarisation assays a small probe gives low polarisation when free and higher when bound to something large.

In general, Kd refers to the free concentration of one partner at which half of the binding sites on the other are occupied at equilibrium, for simple one-to-one binding.

Ends that are not written are not given here.

`C[S+]1CC[C@@H](C(=O)N[C@@H](CCC(=O)O)C(=O)N[C@@H](Cc2c[nH]c3ccccc23)C(=O)O)NC(=O)[C@H](CCCNC(=N)N)NC(=O)[C@H](Cc2c[nH]cn2)NC(=O)[C@H](CCC(=O)O)NC(=O)[C@@H](NC(=O)[C@H](CCCNC(=N)N)NC(=O)[C@H](CCCNC(=N)N)NC(=O)OCC2c3ccccc3-c3ccccc32)CC[S+](C)Cc2cccc(c2)C1` (stereo partly drawn) [Wpc]: in experiment [1], the tumor migration suppression entry is “little effect”. For the same molecule, the “tumor growth suppression (in words)” value in experiment [2] is “failed to suppress the tumor growth”.
As for DWNEPAEEWGNWVDE (peptide, UniProt Q86UE4 393-407, looked up, also: FITC label (position not given here)) [MS2D-E], the equilibrium dissociation constant (Kd) in experiment [3] is about 34 nM.
